Data published in a compilation of properties of binary mixtures (doi:10.1007/s10953-009-9410-7).

Experiment: xn = mol fraction of the nth substance listed
Details: 101 kPa

CCCC[n+]1ccn(C)c1.N#C[S-] + CCCCCCO
viscosity [mPa·s]
Details | 298.15 K | 308.15 K | 318.15 K | 328.15 K | 338.15 K | 348.15 K
x2 = 0 | 51.7 | 34.9 | 24.2 | 16.7 | 12.7 | 9.98
x2 = 0.0424 | 44.4 | 29.7 | 21 | 15.6 | – | –
x2 = 0.1505 | – | – | 17.7 | 13.3 | 10.3 | 8.26
x2 = 0.3093 | 26.1 | 18.3 | 13.5 | 10.3 | – | 6.54
x2 = 0.453 | 18.2 | – | 9.87 | 7.65 | – | 4.92
x2 = 0.5773 | 13.8 | 10.2 | 7.71 | 6 | – | 3.88
x2 = 0.6307 | 12.1 | 9.01 | – | 5.39 | 4.3 | 3.51
x2 = 0.6962 | 10.3 | 7.67 | 5.87 | – | 3.67 | 3.04
x2 = 0.7583 | 8.77 | 6.54 | 4.98 | – | 3.18 | 2.65
x2 = 0.8512 | 6.83 | 5.15 | 3.99 | – | 2.57 | 2.1
x2 = 0.9102 | 5.87 | – | – | 2.69 | 2.17 | 1.77

CCCC[n+]1ccn(C)c1.N#C[S-] + CCCCCO
viscosity [mPa·s]
Details | 298.15 K | 308.15 K | 318.15 K | 328.15 K | 338.15 K | 348.15 K
x2 = 0 | 51.7 | 34.9 | 24.2 | 16.7 | – | 9.98
x2 = 0.0193 | 46.9 | – | 21.9 | 16.2 | 12.5 | 9.88
x2 = 0.1443 | 34.2 | – | 17 | 12.8 | 9.98 | 7.97
x2 = 0.2751 | 26 | 18.3 | 13.5 | 10.4 | 8.2 | –
x2 = 0.3843 | 20 | 14.4 | 10.9 | 8.49 | – | –
x2 = 0.487 | 15.5 | 11.4 | 8.74 | 6.84 | 5.48 | 4.47
x2 = 0.5557 | 12.7 | 9.5 | – | 5.74 | 4.61 | 3.78
x2 = 0.616 | 10.8 | 8.15 | 6.63 | 5.05 | – | 3.42
x2 = 0.7302 | 7.74 | 5.89 | 4.62 | – | 3.04 | 2.54
x2 = 0.7914 | 6.49 | 4.97 | 3.92 | 3.16 | 2.6 | –
x2 = 0.856 | 5.38 | 4.14 | 3.27 | 2.63 | 2.16 | 1.8
x2 = 0.9135 | 4.56 | – | 2.77 | 2.22 | 1.81 | –

CCCC[n+]1ccn(C)c1.N#C[S-] + CCCCO
viscosity [mPa·s]
Details | 298.15 K | 308.15 K | 318.15 K | 328.15 K | 338.15 K | 348.15 K
x2 = 0 | 51.7 | 34.9 | 24.2 | 16.7 | 12.7 | 9.98
x2 = 0.0911 | 39.2 | 26.5 | – | 14.2 | 11 | 8.82
x2 = 0.3317 | 21.2 | 15.2 | 11.5 | 8.92 | 7.12 | –
x2 = 0.4552 | 15.3 | 11.3 | 8.7 | – | 5.51 | 4.51
x2 = 0.5596 | – | 8.44 | – | 5.16 | – | 3.5
x2 = 0.6222 | – | 7.04 | – | 4.39 | – | 3.02
x2 = 0.6834 | 7.53 | – | – | – | 3.08 | 2.59
x2 = 0.79 | – | 4.12 | 3.3 | 2.69 | 2.24 | 1.89
x2 = 0.8487 | 4.37 | 3.43 | 2.75 | 2.25 | 1.87 | 1.58
x2 = 0.8975 | 3.74 | 2.94 | 2.36 | 1.92 | 1.6 | –
x2 = 0.9738 | – | 2.27 | – | 1.46 | 1.2 | –

CCCCCCO + CCCC[n+]1ccn(C)c1.N#C[S-]
x1 = 1
Details | viscosity [mPa·s]
298.15 K | 4.48
318.15 K | 2.55
328.15 K | 1.98
348.15 K | 1.28

CCCCCO + CCCC[n+]1ccn(C)c1.N#C[S-]
x1 = 1
Details | viscosity [mPa·s]
308.15 K | 2.57
318.15 K | 2
328.15 K | 1.58
338.15 K | 1.27
348.15 K | 1.03

CCCCO + CCCC[n+]1ccn(C)c1.N#C[S-]
x1 = 1
Details | viscosity [mPa·s]
298.15 K | 2.52
308.15 K | 1.97
318.15 K | 1.56
338.15 K | 1.02
